Results on 49 compounds are retold here after patent publication US8450308B2 (Vitae Pharmaceuticals, Inc., priority 2008, dated 2013).

SMILES strings stand for the structures.

The nature of the first test: BACE cell assay: soluble Amyloid Beta 1-40 (Aβ 1-40) in culture media of H4-APPsw cells.
Conditions: not given
Format: cell-based. The method, then:
H4 neuroglioma cell line that stably expresses Amyloid Precursor Protein (APP) containing the KM-NL Swedish mutation (H4-APPsw) was generated. For the assay, cells are treated overnight in the presence of inhibitor and the culture media are subjected to ELISA analysis of soluble Amyloid Beta 1-40 (Aβ 1-40).
H4 neuroglioma cell line was cultured in DMEM with 10% FBS and 1% penicillin/streptomycin (Culture Medium) at 37° C., 5% CO2. […] 24 hrs after transfection, the cells were replaced into three new plates (150 mm) in fresh Culture Medium with 250 ug/ml Zeocin. […] The levels of APPsw expression were analyzed by immunoblotting and the production of Aβ 1-40 was detected by ELISA of culture supernatants. The selected clones are maintained in Culture Medium with 250 μg/ml Zeocin and routinely split in 3-4 days to maintain 20-80% confluence.
Split cells. Split H4-APPsw cells in Culture Medium and culture overnight such that cells will be ˜80% confluent next morning.
Create Compound Dilution Plate. After determining the desired final concentration of compound to be tested, create a 500× dilution plate. Add DMSO, but not inhibitor, to each well of Column 1. […] Add compounds of interest at 500× desired final concentration to wells A3-A10. Add DMSO, but not inhibitor, to each well of Columns 11 and 12. Dilute contents of Row A 1:3 in Row B. then continue through Rows C—H.
Create Media Plate. To create a 2× solution of compound in media, add 996 μL Culture Medium to each well of a 96-well 2 ml deep well plate (Media Plate) in biosafety hood. Add 4 μL 5 mM control compound to Media Plate wells A1-D1 for determination of full inhibition.
Add media to Cell Plate. With a multichannel pipettor, mix each well of Media Plate several times to insure homogeneity. Add 100 μL of mixture to Black polymer bottom P-D-L plates. Next, place Medium Plate and Cell Plate in the incubator.
Add cells to Cell Plate. Trypsinize and count H4-APPsw cells. Dilute cells 6×10^5 cells/ml in Culture Medium and remove Cell Plate from incubator. Vortex cells to homogeneity, then using a multichannel repeating pipettor, add 100 μL cell suspension to Cell Plate, adding cells from Row H to Row A. Place Cell Plate in incubator.
Change media in Cell Plate. After 5 h, check Cell Plate by microscope to insure cells are attached. In culture hood, remove media from Cell Plate using multichannel repeating pipettor. Add 100 μl Culture Medium to each well. Remove Media Plate from incubator and mix with pipettor as previous. Add 100 μl from each well of Media Plate to corresponding well in Cell Plate. Place Cell Plate in incubator overnight.
Perform ELISA to determine levels of secreted Aβ 1-40. After 16 h incubation, spin Cell Plate for 8 min at 1200 rpm. The primary reading of Aβ 1-40 levels is done using PerkinElmer AlphaLISA technology. Follow the manufacturer's protocol for performing AlphaLISA in a white ½ area Optiwell plate using Row 12 for peptide standard (1:2 dilutions, starting at 15 ng/ml). Data are acquired using PerkinElmer Fusion-Alpha FP-HT, Alpha protocol (Count Time 0.6 s, Count Time Ratio 30%:70%).
Export data from Fusion using Columnar Report format into a separate file for each plate. Upload data into Activity Base using RIA-DOSE-RESPONSE protocol (Version 1). Data from at least eight doses were fitted to a four parameter logistical model using XLfit software to determine potency.
`CN1OC2(CC3(CCCc4ccccc4C3)Oc3ccc(-c4cccc(C#N)c4)cc32)N=C1N` (stereo not shown) [Compound 217]: the IC50 lay within 100 to 500 nM.

Staying with this test, now noted: in vitro cell activity, H4-APPsw cells, secreted Aβ 1-40, overnight treatment; read-out: IC50.
Take `CN1C(=O)C2(C[C@H](C3CCCc4ccccc43)Oc3ccc(-c4cccc(C#N)c4)cc32)N=C1N` (stereo in doubt) [Compound 188, 3-(2′-amino-1′-methyl-5′-oxo-2-(1,2,3,4-tetrahydronaphthalen-1-yl)-1′,5′-dihydrospiro[chroman-4,4′-imidazole]-6-yl)benzonitrile]: the IC50 lay in the range of 100 to 500 nM.
Still for that read-out and setting: to `CN1OC2(CC3(CCCc4ccccc4C3)Oc3ccc(-c4cc(C#N)cc(C#N)c4)cc32)N=C1N` (stereo not shown) [Compound 178] belongs 1 to 100 nM.
Still for that read-out and setting: the same measure for `CN1C(=O)C2(CC3(CCCc4ccccc4C3)Oc3ccc(-c4cccc(C#N)c4)cc32)N=C1N` (stereo not shown) [Compound 179]: 1 to 100 nM; for `CN1OC2(CC(C3CCCc4ccccc43)Oc3ccc(-c4cc(C#N)cc(C#N)c4)cc32)N=C1N` (stereo not shown) [Compound 180]: 100 to 500 nM; for `CN1OC2(CC3(CCCc4ccccc4C3)Oc3ccc(-c4cccnc4)cc32)N=C1N` (stereo not shown) [Compound 181]: 1 to 100 nM.
Still for that read-out and setting: to `CN1C(=O)C2(CC(C3CCOC(C)(C)C3)Oc3ccc(-c4ccc(F)c(C#N)c4)cc32)N=C1N` (stereo not shown) [Compound 182] belongs 1 to 100 nM; to `CN1C(=O)C2(CC(C3CCOC(C)(C)C3)Oc3ccc(-c4cc(Cl)cc(C#N)c4)cc32)N=C1N` (stereo not shown) [Compound 183], 1 to 100 nM.
For the compound `CN1C(=O)C2(CC(C3CCOC(C)(C)C3)Oc3ccc(-c4cccc(OC(F)(F)F)c4)cc32)N=C1N` (stereo not shown) [Compound 184], the IC50 is 1 to 100 nM.
As for `CN1C(=O)C2(CC(C3CCOC(C)(C)C3)Oc3ccc(-c4cc(C#N)cc(C#N)c4)cc32)N=C1N` (stereo not shown) [Compound 185], the IC50 lay within 1 to 100 nM.
Same read-out and setting: the same measure for `CN1OC2(CC3(CCCc4ccccc4C3)Oc3ccc(-c4cc(F)cc(C#N)c4)cc32)N=C1N` (stereo not shown) [Compound 186]: 500 to 1000 nM; for `CN1C(=O)[C@@]2(C[C@@H](C3CCOC(C)(C)C3)Oc3ccc(-c4ccc(F)c(Cl)c4)cc32)N=C1N` (stereo partly shown) [Compound 187]: 1 to 100 nM.
The same measure, in the same setting: the same measure for `CN1OC2(CC3(CCCc4ccccc4C3)Oc3ccc(-c4cccc(Cl)c4)cc32)N=C1N` (stereo not shown) [Compound 189]: 500 to 1000 nM.
In the case of `CN1C(=O)C2(C[C@H](C3CCOC(C)(C)C3)Oc3ccc(-c4cc(F)cc(Cl)c4)cc32)N=C1N` (stereo partly shown) [Compound 190], the IC50 was 1 to 100 nM.
`CN1OC2(CC3(CCCc4ccccc4C3)Oc3ccc(-c4cc(Cl)cc(C#N)c4)cc32)N=C1N` (stereo not shown) [Compound 191]: the IC50 was 100 to 500 nM.
Same read-out and setting: to `CN1OC2(CC3(CCCc4ccccc4C3)Oc3ccc(-c4ccc(F)c(Cl)c4)cc32)N=C1N` (stereo not shown) [Compound 192] belongs 500 to 1000 nM; to `COc1cc(Cl)cc(-c2ccc3c(c2)C2(CC(C4CCOC(C)(C)C4)O3)N=C(N)N(C)C2=O)c1` (stereo not shown) [Compound 193], 1 to 100 nM; to `CN1C(=O)C2(CC(C3CCOC(C)(C)C3)Oc3ccc(-c4cc(F)cc(C#N)c4)cc32)N=C1N` (stereo not shown) [Compound 194], 1 to 100 nM.
Turning to `CN1C(=O)C2(CC(C3CCOC(C)(C)C3)Oc3ccc(-c4cc(F)cc(C(F)(F)F)c4)cc32)N=C1N` (stereo not shown) [Compound 195], the IC50 lay within 1 to 100 nM.
Take `CN1C(=O)C2(CC(C3CCOC(C)(C)C3)Oc3ccc(-c4cc(Cl)cc(Cl)c4)cc32)N=C1N` (stereo not shown) [Compound 196]: the IC50 lay within 1 to 100 nM.
Consider `CN1C(=O)C2(CC(C3CCOC(C)(C)C3)Oc3ccc(-c4cccc(Cl)c4)cc32)N=C1N` (stereo not shown) [Compound 197], for which the IC50 lay within 1 to 100 nM.
As for `CN1OC2(CC(C3CCCc4ccccc43)Oc3ccc(-c4cc(F)cc(C#N)c4)cc32)N=C1N` (stereo not shown) [Compound 198], the IC50 lay within 1000 to 5000 nM.
As for `CN1OC2(CC3(CCCc4ccccc4C3)Oc3ccc(-c4ccc(F)c(C#N)c4)cc32)N=C1N` (stereo not shown) [Compound 199], the half-maximal inhibitory concentration (IC50) was in the range of 100 to 500 nM.
For the compound `CN1C(=O)C2(CC(C3CCOC(C)(C)C3)Oc3ccc(-c4cccc(C(F)(F)F)c4)cc32)N=C1N` (stereo not shown) [Compound 200], the IC50 lay in the range of 1 to 100 nM.
Same read-out and setting: to `CN1O[C@@]2(C[C@@H](C3CCCc4ccccc43)Oc3ccc(-c4ccc(F)c(C#N)c4)cc32)N=C1N` (stereo partly shown) [Compound 201] belongs 1000 to 5000 nM; to `CN1C(=O)[C@@]2(C[C@]3(CCCOC3)Oc3ccc(-c4cc(Cl)cc(Cl)c4)cc32)N=C1N` [Compound 202], 1 to 100 nM; to `CN1C(=O)[C@@]2(C[C@]3(CCCOC3)Oc3ccc(-c4cc(Cl)cc(C#N)c4)cc32)N=C1N` [Compound 203], 1 to 100 nM.
Regarding `CN1OC2(CC(C3COCc4ccccc43)Oc3ccc(-c4cccc(C#N)c4)cc32)N=C1N` (stereo not shown) [Compound 204], the IC50 fell in the range of 1000 to 5000 nM.
Take `CN1O[C@@]2(C[C@]3(CCCc4ccccc4C3)Oc3ccc(-c4cccc(C#N)c4)cc32)N=C1N` [Compound 205]: the IC50 fell in the range of 100 to 500 nM.
As to `CN1C(=O)C2(CC(C34CCC(CC3)OC4)Oc3ccc(-c4cccc(C#N)c4)cc32)N=C1N` (stereo not shown) [Compound 206], the IC50 lay within 100 to 500 nM.
The same measure, in the same setting: the same measure for `CN1O[C@@]2(C[C@@H]([C@H]3CCOC(C)(C)C3)Oc3ccc(-c4cccc(C#N)c4)cc32)N=C1N` [Compound 207]: 100 to 500 nM.
Still for that read-out and setting: to `CN1OC2(CC(C3CCCc4ccccc43)Oc3ccc(-c4cc(Cl)cc(C#N)c4)cc32)N=C1N` (stereo not shown) [Compound 208] belongs 1000 to 5000 nM; to `CN1O[C@@]2(C[C@@]3(CCCc4ccccc4C3)Oc3ccc(-c4cccc(C#N)c4)cc32)N=C1N` [Compound 209], 1000 to 5000 nM; to `CN1O[C@]2(C[C@H]([C@@H]3CCOC(C)(C)C3)Oc3ccc(-c4cccc(C#N)c4)cc32)N=C1N` [Compound 211], 100 to 500 nM.
`CN1C(=O)C2(CC(C3CCOC(C)(C)C3)Oc3ccc(-c4cccc(C#N)c4F)cc32)N=C1N` (stereo not shown) [Compound 212]: the IC50 lay in the range of 1 to 100 nM.
Still for that read-out and setting: to `CN1C(=O)C2(CC(C3CCOC(C)(C)C3)Oc3ccc(-c4cc(C#N)cc(C(F)(F)F)c4)cc32)N=C1N` (stereo not shown) [Compound 213] belongs 1 to 100 nM; to `COc1cc(Cl)cc(-c2ccc3c(c2)[C@]2(C[C@]4(CCCOC4)O3)N=C(N)N(C)C2=O)c1` [Compound 214], 1 to 100 nM; to `CN1C(=O)[C@@]2(C[C@]3(CCCOC3)Oc3ccc(-c4cc(F)cc(Cl)c4)cc32)N=C1N` [Compound 215], 100 to 500 nM.
Same read-out and setting: the same measure for `CN1C(=O)[C@@]2(C[C@]3(CCCOC3)Oc3ccc(-c4cc(C#N)cc(C(F)(F)F)c4)cc32)N=C1N` [Compound 216]: 1 to 100 nM; for `CN1C(=O)C2(CC(C3CCOC(C)(C)C3)Oc3ccc(-c4cc(C#N)ccc4F)cc32)N=C1N` (stereo not shown) [Compound 218]: 1 to 100 nM; for `CN1O[C@]2(C[C@]3(CCCc4ccccc4C3)Oc3ccc(-c4cccc(C#N)c4)cc32)N=C1N` [Compound 220]: 100 to 500 nM.
On to `CN1O[C@@]2(C[C@H](C3CCCc4ccccc43)Oc3ccc(-c4ccc(F)c(C#N)c4)cc32)N=C1N` (stereo partly shown) [Compound 221], for which the IC50 is 1000 to 5000 nM.
As for `Cc1ccc(C#N)cc1-c1ccc2c(c1)[C@]1(C[C@H](C3CCOC(C)(C)C3)O2)N=C(N)N(C)C1=O` (stereo partly shown) [Compound 222], the IC50 lay in the range of 1 to 100 nM.
Regarding `COc1cc(C#N)cc(-c2ccc3c(c2)C2(CC4(CCCOC4)O3)N=C(N)N(C)C2=O)c1` (stereo not shown) [Compound 223], the IC50 lay in the range of 1 to 100 nM.
In the case of `CN1C(=O)[C@@]2(C[C@]3(CCCOC3)Oc3ccc(-c4cccc(Cl)c4)cc32)N=C1N` [Compound 224], the IC50 is 100 to 500 nM.
For the compound `COc1cccc2c1CCCC1(C2)CC2(N=C(N)N(C)O2)c2cc(-c3cccc(C#N)c3)ccc2O1` (stereo not shown) [Compound 225], the IC50 fell in the range of 500 to 1000 nM.
Same read-out and setting: to `CN1OC2(CC(C3CCc4ccccc43)Oc3ccc(-c4cccc(C#N)c4)cc32)N=C1N` (stereo not shown) [Compound 226] belongs 1000 to 5000 nM; to `CN1OC2(CC3(CCCc4ccccc4C3)Oc3ccc(-c4cc(F)cc(Cl)c4)cc32)N=C1N` (stereo not shown) [Compound 227], 1000 to 5000 nM.
On the same count and under the same terms, to `CN1O[C@]2(C[C@@]3(CCCc4ccccc4C3)Oc3ccc(-c4cccc(C#N)c4)cc32)N=C1N` [Compound 228] belongs 500 to 1000 nM.

One may read the IC50 as the concentration at which inhibition is half-maximal.
